Laboratory results published in patent US20250313563A1, “GLYCOGEN SYNTHASE KINASE 3 INHIBITORS AND USES THEREOF” (The Broad Institute, Inc., priority 2022, published 2025).
Like-named read-outs stand apart in the source and are kept apart here.

How the values were obtained:
[1] = target: GSK3α (GST-full length GSK3α) (Homo sapiens (Human), UniProt P49840); experiment: GSK3α TR-FRET kinase assay; type: biochemical
Method in brief: (§1)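 Compound preincubated 30 min, then 1 nM GST-full-length GSK3α or GSK3b run 100 min at ambient temperature with 200 nM biotinylated, S645-prephosphorylated glycogen synthase 631-650 peptide in Tris pH 7.5, MgCl2, DTT, BSA, 1% DMSO. ATP 4 μM (α) or 2 μM (β), or 1 mM. EDTA-quenched; Tb-anti-pSer641/streptavidin-d2 TR-FRET 665/615 ratio gave IC50.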

[2] = target: GSK3b (GST-full length GSK3b) (Homo sapiens (Human), UniProt P49841); experiment: GSK3b TR-FRET kinase assay; type: biochemical
GSK3b (GST-full length GSK3b), sequence (P49841 whole entry): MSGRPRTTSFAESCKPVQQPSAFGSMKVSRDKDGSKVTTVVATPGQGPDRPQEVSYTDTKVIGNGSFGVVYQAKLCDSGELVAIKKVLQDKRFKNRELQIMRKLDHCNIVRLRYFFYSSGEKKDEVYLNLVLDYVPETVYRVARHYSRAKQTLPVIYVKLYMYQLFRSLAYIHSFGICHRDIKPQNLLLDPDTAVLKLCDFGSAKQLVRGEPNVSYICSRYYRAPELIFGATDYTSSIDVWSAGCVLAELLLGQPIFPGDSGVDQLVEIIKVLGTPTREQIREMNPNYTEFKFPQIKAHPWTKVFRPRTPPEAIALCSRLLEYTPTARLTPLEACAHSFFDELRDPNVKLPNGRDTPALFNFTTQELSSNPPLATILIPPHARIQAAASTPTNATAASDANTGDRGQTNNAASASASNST
Method in brief: as §1

[3] = 1 nM GSK3α, 4 μM ATP, 30 minute preincubation, geometric mean, read-out: GSK3-A TR-FRET BIOCHEMICAL (TR-FRET), GMean, IC50
[4] = 1 nM GSK3b, 2 μM ATP, 30 minute preincubation, geometric mean, read-out: GSK3-B TR-FRET BIOCHEMICAL (TR-FRET), GMean, IC50
[5] = 1 nM GSK3α, 4 μM ATP, 30 minute preincubation, Table 16, read-out: GSK3-A TR-FRET BIOCHEMICAL (TR-FRET)
[6] = 1 nM GSK3b, 2 μM ATP, 30 minute preincubation, Table 16, read-out: GSK3-B TR-FRET BIOCHEMICAL (TR-FRET)
[7] = read-out: GSK3-A (TR-FRET 1 mM ATP), GMean, IC50, 1 mM ATP, geometric mean
[8] = read-out: GSK3-B (TR-FRET 1 mM ATP), GMean, IC50, 1 mM ATP, geometric mean
[9] = 1 nM GSK3α, 4 μM ATP, 30 minute preincubation, Table 16, read-out: GSK3-A TR-FRET BIOCHEMICAL (TR-FRET), IC50
[10] = 1 nM GSK3b, 2 μM ATP, 30 minute preincubation, Table 16, read-out: GSK3-B TR-FRET BIOCHEMICAL (TR-FRET), IC50

GSK3α (GST-full length GSK3α), sequence (P49840 whole entry): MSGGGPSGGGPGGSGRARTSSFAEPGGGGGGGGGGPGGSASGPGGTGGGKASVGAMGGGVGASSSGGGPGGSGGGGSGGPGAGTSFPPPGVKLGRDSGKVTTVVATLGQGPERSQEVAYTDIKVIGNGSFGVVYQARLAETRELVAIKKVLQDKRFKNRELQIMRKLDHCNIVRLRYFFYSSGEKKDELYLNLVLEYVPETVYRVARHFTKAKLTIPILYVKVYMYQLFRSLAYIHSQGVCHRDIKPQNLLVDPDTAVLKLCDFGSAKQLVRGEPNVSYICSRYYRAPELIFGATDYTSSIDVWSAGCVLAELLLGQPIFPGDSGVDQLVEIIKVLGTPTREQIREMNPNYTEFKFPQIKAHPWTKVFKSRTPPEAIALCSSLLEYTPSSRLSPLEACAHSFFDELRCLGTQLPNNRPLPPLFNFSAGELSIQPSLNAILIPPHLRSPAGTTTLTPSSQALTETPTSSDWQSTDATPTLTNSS

Compound	IC50 [1, 3] [nM]	IC50 [2, 4] [nM]	IC50 [1, 9] [nM]	IC50 [2, 10] [nM]	further results
CCC1(c2cccc(-c3cnn(CCOC)c3)c2)C2=C(CC(C)(C)NC2=O)Nc2n[nH]cc21 (centres unmarked) [Compound 949114]	1000 to 5000	> 5000	–	–	–
CCC1(c2cccc(-c3cc(OC)nc4ccccc34)c2)C2=C(CC(C)(C)NC2=O)Nc2n[nH]cc21 (centres unmarked) [Compound 949116]	> 5000	> 5000	–	–	–
CC[C@@]1(c2cccc(C(F)(F)F)c2)C2=C(CCN(c3ccc(C)cc3)C2=O)Nc2n[nH]cc21 [Compound 949118]	≤ 100	100 to 1000	–	–	–
CC[C@]1(c2cccc(C(F)(F)F)c2)C2=C(CCN(c3ccc(C)cc3)C2=O)Nc2n[nH]cc21 [Compound 949119]	1000 to 5000	> 5000	–	–	–
CCC1(c2cccc(C(F)(F)F)c2)C2=C(CCN(c3cnc(OC)nc3)C2=O)Nc2n[nH]c(C)c21 (centres unmarked) [Compound 949126]	≤ 100	100 to 1000	–	–	–
CC[C@]1(c2cccc(C(F)(F)F)c2)C2=C(CCN(c3cnc(OC)nc3)C2=O)Nc2n[nH]cc21 [Compound 949127]	1000 to 5000	> 5000	–	–	–
CCC1(c2cccc(C(F)(F)F)c2)C2=C(CCN(c3ccccc3C)C2=O)Nc2n[nH]cc21 (centres unmarked) [Compound 949128]	≤ 100	100 to 1000	–	–	–
CC[C@]1(c2cccc(C(F)(F)F)c2)C2=C(CCN(c3ccccc3C)C2=O)Nc2n[nH]cc21 [Compound 949129]	> 5000	> 5000	–	–	–
CCC1(c2cccc(C3CN(C(C)=O)C3)c2)C2=C(CC(C)(C)CC2=O)Nc2n[nH]cc21 (centres unmarked) [Compound 949131]	–	–	–	–	IC50 [1, 5]: 100 to 1000 nM; IC50 [2, 6]: 1000 to 5000 nM
CC[C@]1(c2cccc(C3CN(C(C)=O)C3)c2)C2=C(CC(C)(C)CC2=O)Nc2n[nH]cc21 [Compound 949132]	–	–	–	–	IC50 [1, 5]: > 5000 nM; IC50 [2, 6]: > 5000 nM
CCC1(c2cccc(-c3ccnc(C)c3)c2)C2=C(CC(C)(C)NC2=O)Nc2n[nH]c(C(F)F)c21 (centres unmarked) [Compound 949169]	≤ 100	≤ 100	–	–	IC50 [1, 7]: 100 to 1000 nM; IC50 [2, 8]: 1000 to 5000 nM
CCC1(c2cccc(-c3cn(C)nc3C)c2)C2=C(CC(C)(C)NC2=O)Nc2n[nH]c(C(F)F)c21 (centres unmarked) [Compound 949170]	≤ 100	≤ 100	–	–	–
CCC1(c2cccc(-c3cnn(C)c3)c2)C2=C(CC(C)(C)NC2=O)Nc2n[nH]c(C(F)F)c21 (centres unmarked) [Compound 949171]	≤ 100	≤ 100	–	–	IC50 [1, 7]: ≤ 100 nM; IC50 [2, 8]: 1000 to 5000 nM
CCC1(c2cccc(C(C)C)c2)C2=C(CC(C)(C)NC2=O)Nc2n[nH]c(C)c21 (centres unmarked) [Compound 949173]	≤ 100	≤ 100	–	–	–
CCC1(c2cccc(-c3cc(C)nnc3C)c2)C2=C(CC(C)(C)NC2=O)Nc2n[nH]c(C(F)(F)F)c21 (centres unmarked) [Compound 949174]	≤ 100	≤ 100	–	–	IC50 [1, 7]: 100 to 1000 nM; IC50 [2, 8]: 100 to 1000 nM
CC[C@]1(c2cccc(S(=O)(=O)CC3CC3)c2)C2=C(CC(C)(C)NC2=O)Nc2n[nH]c(C(F)(F)F)c21 [Compound 949175]	≤ 100	≤ 100	–	–	IC50 [1, 7]: ≤ 100 nM; IC50 [2, 8]: ≤ 100 nM
CC[C@]1(c2cccc(S(=O)(=O)C3CC3)c2)C2=C(CC(C)(C)N(C)C2=O)Nc2n[nH]cc21 [Compound 949177]	≤ 100	≤ 100	–	–	IC50 [1, 7]: 100 to 1000 nM; IC50 [2, 8]: 1000 to 5000 nM
CC[C@]1(c2cccc(N3CCCCC3)c2)C2=C(CC(C)(C)NC2=O)Nc2n[nH]c(C(F)(F)F)c21 [Compound 949178]	100 to 1000	1000 to 5000	–	–	–
CC[C@]1(c2cccc(N(C)c3ncccn3)c2)C2=C(CC(C)(C)NC2=O)Nc2n[nH]cc21 [Compound 949179]	100 to 1000	> 5000	–	–	–
CCC1(c2cccc(N(C)c3ncccn3)c2)C2=C(CC(C)(C)NC2=O)Nc2n[nH]c(C(F)(F)F)c21 (centres unmarked) [Compound 949181]	–	–	–	–	IC50 [1, 7]: ≤ 100 nM; IC50 [2, 8]: 100 to 1000 nM

Compound	IC50 [1, 3] [nM]	IC50 [2, 4] [nM]	IC50 [1, 9] [nM]	IC50 [2, 10] [nM]	further results
CCC1(c2cccc(N(C)c3ncccn3)c2)C2=C(CC(C)(C)NC2=O)Nc2n[nH]c(C)c21 (centres unmarked) [Compound 949182]	≤ 100	≤ 100	–	–	–
CCC1(c2cccc(N3CCCCC3)c2)C2=C(CC(C)(C)NC2=O)Nc2n[nH]c(C(F)(F)F)c21 (centres unmarked) [Compound 949183]	≤ 100	≤ 100	–	–	IC50 [1, 7]: ≤ 100 nM; IC50 [2, 8]: 100 to 1000 nM
CC[C@@]1(c2cccc(S(=O)(=O)C3CC3)c2)C2=C(CC(C)(C)N(C)C2=O)Nc2n[nH]cc21 [Compound 949184]	–	–	1000 to 5000	> 5000	–
CC[C@@]1(c2cccc(-c3cn(C)nc3C)c2)C2=C(CC(C)(C)NC2=O)Nc2n[nH]c(F)c21 [Compound 949185]	–	–	≤ 100	≤ 100	IC50 [1, 7]: ≤ 100 nM; IC50 [2, 8]: 1000 to 5000 nM
CC[C@@]1(c2cccc(S(=O)(=O)CC3CC3)c2)C2=C(CC(C)(C)NC2=O)Nc2n[nH]c(C(F)(F)F)c21 [Compound 949186]	–	–	100 to 1000	100 to 1000	–
CC[C@@]1(c2cccc(-c3cnn4ccncc34)c2)C2=C(CC(C)(C)NC2=O)Nc2n[nH]cc21 [Compound 949263]	–	–	> 5000	> 5000	–
CC[C@@]1(c2cccc(-c3cnn(-c4ccccn4)c3)c2)C2=C(CC(C)(C)NC2=O)Nc2n[nH]cc21 [Compound 949264]	–	–	> 5000	> 5000	–
CCC1(c2cccc(-c3cn(C)nc3C(F)(F)F)c2)C2=C(CC(C)(C)NC2=O)Nc2n[nH]cc21 (centres unmarked) [Compound 949266]	–	–	≤ 100	100 to 1000	–
CCC1(c2cccc(C(F)(F)C(F)(F)F)c2)C2=C(CC(C)(C)CC2=O)Nc2n[nH]cc21 (centres unmarked) [Compound 949268]	–	–	–	–	IC50 [1, 5]: 1000 to 5000 nM; IC50 [2, 6]: > 5000 nM
CCC1(c2cccc(C(F)(F)F)c2)C2=C(CCN(c3cnn(C)c3)C2=O)Nc2n[nH]cc21 (centres unmarked) [Compound 949270]	–	–	≤ 100	100 to 1000	–
CC[C@]1(c2cccc(C(F)(F)F)c2)C2=C(CCN(c3cnn(C)c3)C2=O)Nc2n[nH]cc21 [Compound 949271]	–	–	100 to 1000	> 5000	–
CCC1(c2cccc(C(F)(F)F)c2)C2=C(CCN(c3ccccn3)C2=O)Nc2n[nH]cc21 (centres unmarked) [Compound 949310]	–	–	≤ 100	100 to 1000	IC50 [1, 7]: 100 to 1000 nM; IC50 [2, 8]: > 5000 nM
Cc1cnccc1[C@H]1CC[C@@]2(CC1)C1=C(CC(C)(C)CC1=O)Nc1n[nH]cc12 [Compound 949318]	–	–	–	–	IC50 [1, 5]: 100 to 1000 nM; IC50 [2, 6]: 100 to 1000 nM
Cc1cnccc1[C@H]1CC[C@]2(CC1)C1=C(CC(C)(C)CC1=O)Nc1n[nH]cc12 [Compound 949319]	–	–	–	–	IC50 [1, 5]: ≤ 100 nM; IC50 [2, 6]: ≤ 100 nM
CC1(C)CC(=O)C2=C(C1)Nc1n[nH]cc1[C@]21CC[C@@H](c2ccncc2)CC1 [Compound 949320]	–	–	–	–	IC50 [1, 5]: 100 to 1000 nM; IC50 [2, 6]: 1000 to 5000 nM
CC1(C)CC(=O)C2=C(C1)Nc1n[nH]cc1[C@]21CC[C@H](c2ccncc2)CC1 [Compound 949321]	–	–	–	–	IC50 [1, 5]: ≤ 100 nM; IC50 [2, 6]: ≤ 100 nM
Cn1cc([C@H]2CC[C@@]3(CC2)C2=C(CC(C)(C)CC2=O)Nc2n[nH]cc23)cn1 [Compound 949322]	–	–	–	–	IC50 [1, 5]: 100 to 1000 nM; IC50 [2, 6]: 1000 to 5000 nM
Cn1cc([C@H]2CC[C@]3(CC2)C2=C(CC(C)(C)CC2=O)Nc2n[nH]cc23)cn1 [Compound 949323]	–	–	1000 to 5000	> 5000	–
CCC1(c2cccc(-c3ccncc3F)c2)C2=C(CC(C)(C)NC2=O)Nc2n[nH]c(Cl)c21 (centres unmarked) [Compound 949324]	–	–	≤ 100	≤ 100	IC50 [1, 7]: 100 to 1000 nM; IC50 [2, 8]: 1000 to 5000 nM
CC[C@]1(c2cccc(OC)c2)C2=C(CC(C)(C)NC2=O)Nc2n[nH]c(C)c21 [Compound 949328]	–	–	1000 to 5000	> 5000	–
